Assay results taken from ChEMBL document CHEMBL1201862, “PubChem BioAssay data set” (2004).
Active and inactive are the calls of the source.

Tests used:
[1] = Luminescence Cell-Based Dose Confirmation HTS to Identify Activators of 5'UTR Stem-Loop Driven Alpha-Synuclein mRNA Translation in H4 Neuroglioblastoma Cells. [Related pubchem assays: 1829 (Project Summary), 1814 (Primary HTS)]; assay type: functional
[2] = target: T1, Zinc finger protein mex-5 (Caenorhabditis elegans, UniProt Q9XUB2); assay: MEX-5/TCR-2 RNA interaction inhibitors, dose response, biochemical, C. elegans, fluorescence polarization (AID 1960)
T1 sequence (Q9XUB2 whole entry): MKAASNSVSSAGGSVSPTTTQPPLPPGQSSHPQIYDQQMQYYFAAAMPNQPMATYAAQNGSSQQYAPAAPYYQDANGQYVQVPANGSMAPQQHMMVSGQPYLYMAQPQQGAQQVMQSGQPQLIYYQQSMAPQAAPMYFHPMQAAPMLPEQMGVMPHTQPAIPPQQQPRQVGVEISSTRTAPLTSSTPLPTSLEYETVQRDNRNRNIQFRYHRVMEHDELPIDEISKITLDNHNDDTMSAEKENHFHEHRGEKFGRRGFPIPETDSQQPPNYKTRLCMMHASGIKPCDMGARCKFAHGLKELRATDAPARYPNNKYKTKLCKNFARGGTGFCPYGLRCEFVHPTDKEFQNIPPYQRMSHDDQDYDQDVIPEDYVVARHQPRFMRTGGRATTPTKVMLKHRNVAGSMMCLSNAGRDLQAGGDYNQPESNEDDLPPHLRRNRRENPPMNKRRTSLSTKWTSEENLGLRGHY

[3] = system: H4; assay: Luminescence Cell-Based Dose Response HTS to Identify Activators of 5'UTR Stem-Loop Driven Prion Protein mRNA Translation in H4 Neuroglioblastoma Cells. [Related pubchem assays: 1829 (Project Summary), 1814 (Primary HTS)]; assay type: functional; conditions: Homo sapiens
[4] = Luminescence Cell-Based Dose Response HTS to Identify Activators of Luciferase Translation or Activity in H4 […] Cells. [Related pubchem assays: 1829 (Project Summary), 1814 (Primary HTS)]; assay type: functional
[5] = target: T2, RNA-binding protein pos-1 (Caenorhabditis elegans, UniProt G5EF15); assay: inhibitors of POS-1/mex-3 RNA binding, dose response, biochemical, fluorescence polarization (AID 1964);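 also: purified POS-1 fused to maltose binding protein made in E. coli; potency of compounds blocking POS-1 binding to fluorescent RNA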
T2 sequence (G5EF15 whole entry): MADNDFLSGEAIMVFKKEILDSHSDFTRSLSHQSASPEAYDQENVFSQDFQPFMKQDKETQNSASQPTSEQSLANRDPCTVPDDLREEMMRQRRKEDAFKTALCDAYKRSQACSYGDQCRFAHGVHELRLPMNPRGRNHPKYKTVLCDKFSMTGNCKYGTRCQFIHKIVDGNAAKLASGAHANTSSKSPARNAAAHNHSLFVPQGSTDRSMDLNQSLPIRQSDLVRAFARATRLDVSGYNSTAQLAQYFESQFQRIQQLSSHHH

[6] = target: T3, Endoribonuclease toxin MazF (Escherichia coli K-12, UniProt P0AE70); assay: MazF toxin RNase activators, dose response, biochemical, fluorescence, single-stranded RNA substrate, uHTS hits (AID 588481); assay type: functional
T3 sequence (P0AE70 whole entry): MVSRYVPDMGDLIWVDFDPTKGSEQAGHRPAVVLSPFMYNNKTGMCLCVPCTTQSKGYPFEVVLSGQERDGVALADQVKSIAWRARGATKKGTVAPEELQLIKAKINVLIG

[7] = target: T3, Endoribonuclease toxin MazF; assay: fluorescent RNA oligo signal without MazF, dose response, counter-screen for MazEF activator project, biochemical, fluorescence, single-stranded RNase substrate (AID 588502); assay type: functional
[8] = cytotoxicity toward NIH3T3 fibroblasts, dose response, counter-screen, cell-based, ATP luminescence, mouse fibroblasts (AID 2010); assay type: functional;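 also: cells exposed to compound for about 90 hours before reading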
[9] = inhibitors of intracellular T. cruzi replication, confirmation, NIH3T3 host cells, beta-gal luminescence (AID 2044); assay type: functional, cell-based;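 also: intracellular parasites grown in NIH/3T3 mouse fibroblasts as host cells; luminescent beta-galactosidase reporter signal from transgenic T. cruzi replicating inside host cells; inhibitors lower the luminescence signal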
[10] = cells
[11] = target: Cytochrome P450 2C9 (Homo sapiens, UniProt P11712)
[12] = target: Cytochrome P450 2D6 (Homo sapiens, UniProt P10635);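 also: CYP2D6 member of a cytochrome P450 panel assay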
[13] = target: T4, Aminopeptidase N (Plasmodium falciparum FcB1/Columbia, UniProt O96935); assay: P. falciparum M1AAP inhibitors, biochemical, fluorogenic H-Leu-NHMec substrate, 1536-well (AID 1445); set-up: species or system Plasmodium falciparum 3D7, 3D7
T4 sequence (O96935 whole entry): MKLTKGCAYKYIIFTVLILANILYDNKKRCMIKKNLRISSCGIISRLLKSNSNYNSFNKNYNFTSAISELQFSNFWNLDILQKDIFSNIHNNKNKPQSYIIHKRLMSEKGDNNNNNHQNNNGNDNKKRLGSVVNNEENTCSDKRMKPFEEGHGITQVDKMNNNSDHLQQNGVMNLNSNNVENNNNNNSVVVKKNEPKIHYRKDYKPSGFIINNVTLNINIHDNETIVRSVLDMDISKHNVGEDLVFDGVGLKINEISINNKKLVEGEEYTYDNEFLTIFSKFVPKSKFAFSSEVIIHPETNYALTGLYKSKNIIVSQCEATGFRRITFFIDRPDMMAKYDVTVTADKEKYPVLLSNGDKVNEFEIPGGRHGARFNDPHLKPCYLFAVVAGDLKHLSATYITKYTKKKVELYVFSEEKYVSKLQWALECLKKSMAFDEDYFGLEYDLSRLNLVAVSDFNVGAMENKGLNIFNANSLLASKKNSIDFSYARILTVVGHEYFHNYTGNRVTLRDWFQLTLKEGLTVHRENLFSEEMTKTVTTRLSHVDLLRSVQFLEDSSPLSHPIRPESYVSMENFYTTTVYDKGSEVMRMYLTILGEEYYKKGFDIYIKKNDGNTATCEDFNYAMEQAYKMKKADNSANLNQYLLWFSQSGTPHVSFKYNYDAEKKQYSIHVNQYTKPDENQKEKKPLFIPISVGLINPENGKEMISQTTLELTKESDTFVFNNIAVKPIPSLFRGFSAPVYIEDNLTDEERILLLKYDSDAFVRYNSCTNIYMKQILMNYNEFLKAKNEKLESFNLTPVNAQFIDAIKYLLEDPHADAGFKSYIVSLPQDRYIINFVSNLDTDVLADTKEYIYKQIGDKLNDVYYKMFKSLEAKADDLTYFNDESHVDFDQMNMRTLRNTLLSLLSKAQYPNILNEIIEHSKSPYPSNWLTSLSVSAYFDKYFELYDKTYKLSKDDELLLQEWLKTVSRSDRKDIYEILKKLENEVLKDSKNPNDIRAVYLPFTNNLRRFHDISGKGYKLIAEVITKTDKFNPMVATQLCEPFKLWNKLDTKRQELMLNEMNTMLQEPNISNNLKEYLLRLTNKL

[14] = cells; assay type: functional
[15] = cells; assay type: functional, cell-based
[16] = NIH-3T3 fibroblast cytotoxicity, dose response, cytotoxicity control, cell-based, fluorescence, Alamar Blue, secondary assay (AID 2327); assay type: functional;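 also: NIH-3T3 mouse fibroblasts cultured with fluconazole at 8 µg/mL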
[17] = A Cell Based Secondary Assay To Explore Cytotoxicity of Compounds that Sensitize Mycobacterium Tuberculosis to Beta-Lactam Antibiotics.; assay type: functional
[18] = target: T5, Microphthalmia-associated transcription factor (Homo sapiens, UniProt O75030); assay: TRPM1 promoter luciferase signal decrease, dose response, MITF inhibitor project, cell-based, SK-MEL-5, cherry-picked, set 3 (AID 493073); assay type: functional
T5 sequence (O75030 whole entry): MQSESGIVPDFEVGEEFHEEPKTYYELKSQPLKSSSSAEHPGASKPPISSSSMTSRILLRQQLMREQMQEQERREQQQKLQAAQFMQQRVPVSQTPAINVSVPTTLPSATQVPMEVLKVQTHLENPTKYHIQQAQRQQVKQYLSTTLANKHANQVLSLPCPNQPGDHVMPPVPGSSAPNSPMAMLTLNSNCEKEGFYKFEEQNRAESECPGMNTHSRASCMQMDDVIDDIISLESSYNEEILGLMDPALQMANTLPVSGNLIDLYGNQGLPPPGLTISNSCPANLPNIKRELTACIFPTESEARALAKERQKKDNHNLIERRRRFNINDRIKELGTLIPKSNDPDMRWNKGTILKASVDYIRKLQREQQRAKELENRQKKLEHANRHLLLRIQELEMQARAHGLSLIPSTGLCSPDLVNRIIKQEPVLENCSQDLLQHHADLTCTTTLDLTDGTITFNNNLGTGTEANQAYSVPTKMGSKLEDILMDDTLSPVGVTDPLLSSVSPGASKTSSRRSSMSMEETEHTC

[19] = cells; assay type: functional, cell-based; remark: listed apart in the source
[20] = C. albicans growth with fluconazole, confirmation, fluorescence, retest (AID 2467); assay type: functional, cell-based
[21] = target: Nonstructural protein 1 (Influenza A virus, UniProt Q194T2); assay type: functional, Influenza A virus (A/California/07/2009(H1N1))
[22] = system: Vero; assay: Vero cell cytotoxicity, cytotoxicity control for flavivirus capping enzyme inhibitors (AID 588742); assay type: functional; conditions: Chlorocebus sabaeus
[23] = target: T6, Histone-lysine N-methyltransferase NSD2 (Homo sapiens, UniProt O96028); assay type: biochemical
T6 sequence (O96028 whole entry): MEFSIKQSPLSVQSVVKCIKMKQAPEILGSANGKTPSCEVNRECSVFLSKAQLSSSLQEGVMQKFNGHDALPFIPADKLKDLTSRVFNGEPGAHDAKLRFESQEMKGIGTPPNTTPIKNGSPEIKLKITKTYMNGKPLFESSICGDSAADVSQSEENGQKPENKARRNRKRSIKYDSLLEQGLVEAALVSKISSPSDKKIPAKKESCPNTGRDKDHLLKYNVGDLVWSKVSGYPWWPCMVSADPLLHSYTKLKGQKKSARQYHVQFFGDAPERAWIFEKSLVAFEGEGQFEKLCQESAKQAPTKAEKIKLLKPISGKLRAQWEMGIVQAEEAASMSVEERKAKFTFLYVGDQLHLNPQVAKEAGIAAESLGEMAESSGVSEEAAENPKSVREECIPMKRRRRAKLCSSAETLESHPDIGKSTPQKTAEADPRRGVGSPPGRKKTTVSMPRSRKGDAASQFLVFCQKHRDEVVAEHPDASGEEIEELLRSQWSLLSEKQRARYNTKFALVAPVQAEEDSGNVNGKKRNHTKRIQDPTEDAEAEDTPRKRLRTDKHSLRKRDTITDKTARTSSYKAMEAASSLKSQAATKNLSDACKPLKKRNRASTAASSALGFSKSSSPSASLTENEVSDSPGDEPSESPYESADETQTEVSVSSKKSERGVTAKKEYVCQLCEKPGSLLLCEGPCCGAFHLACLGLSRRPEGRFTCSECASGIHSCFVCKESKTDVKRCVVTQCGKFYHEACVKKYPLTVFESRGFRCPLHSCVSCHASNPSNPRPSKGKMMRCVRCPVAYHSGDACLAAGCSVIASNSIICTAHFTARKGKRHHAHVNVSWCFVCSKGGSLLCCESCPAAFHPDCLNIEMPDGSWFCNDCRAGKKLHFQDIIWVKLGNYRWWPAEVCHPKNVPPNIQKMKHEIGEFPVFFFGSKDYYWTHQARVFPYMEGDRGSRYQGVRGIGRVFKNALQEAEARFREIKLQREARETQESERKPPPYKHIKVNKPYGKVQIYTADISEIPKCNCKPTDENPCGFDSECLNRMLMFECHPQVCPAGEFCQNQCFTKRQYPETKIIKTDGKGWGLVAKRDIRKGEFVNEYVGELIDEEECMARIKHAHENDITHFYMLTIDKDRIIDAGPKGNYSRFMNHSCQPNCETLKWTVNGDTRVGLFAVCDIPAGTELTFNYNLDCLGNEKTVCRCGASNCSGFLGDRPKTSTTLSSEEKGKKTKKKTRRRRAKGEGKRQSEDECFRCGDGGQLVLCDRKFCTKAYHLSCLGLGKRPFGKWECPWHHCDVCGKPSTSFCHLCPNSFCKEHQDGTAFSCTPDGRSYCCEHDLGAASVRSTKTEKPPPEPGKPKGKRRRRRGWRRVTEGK

Chain of Nonstructural protein 1 (Q194T2 whole entry): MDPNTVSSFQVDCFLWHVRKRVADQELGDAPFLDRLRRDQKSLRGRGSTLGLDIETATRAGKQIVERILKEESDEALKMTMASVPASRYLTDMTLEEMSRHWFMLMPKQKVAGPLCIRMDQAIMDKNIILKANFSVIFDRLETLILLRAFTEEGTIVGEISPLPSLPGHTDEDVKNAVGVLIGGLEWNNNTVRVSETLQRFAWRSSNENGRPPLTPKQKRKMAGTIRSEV
Chain of Cytochrome P450 2C9 (P11712 whole entry): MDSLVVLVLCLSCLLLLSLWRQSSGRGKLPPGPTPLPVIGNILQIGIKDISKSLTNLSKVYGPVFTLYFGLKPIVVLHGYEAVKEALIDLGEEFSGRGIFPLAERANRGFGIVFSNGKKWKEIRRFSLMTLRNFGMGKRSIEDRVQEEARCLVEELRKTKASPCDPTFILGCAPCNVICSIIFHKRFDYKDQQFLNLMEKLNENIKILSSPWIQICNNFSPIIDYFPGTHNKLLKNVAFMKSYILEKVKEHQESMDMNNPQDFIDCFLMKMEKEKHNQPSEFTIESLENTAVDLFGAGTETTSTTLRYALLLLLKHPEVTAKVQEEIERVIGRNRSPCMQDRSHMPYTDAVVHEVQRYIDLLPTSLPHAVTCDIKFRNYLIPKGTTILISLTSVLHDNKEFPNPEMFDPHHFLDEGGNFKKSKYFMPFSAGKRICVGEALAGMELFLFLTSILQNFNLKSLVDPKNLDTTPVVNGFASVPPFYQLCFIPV
Chain of Cytochrome P450 2D6 (P10635 whole entry): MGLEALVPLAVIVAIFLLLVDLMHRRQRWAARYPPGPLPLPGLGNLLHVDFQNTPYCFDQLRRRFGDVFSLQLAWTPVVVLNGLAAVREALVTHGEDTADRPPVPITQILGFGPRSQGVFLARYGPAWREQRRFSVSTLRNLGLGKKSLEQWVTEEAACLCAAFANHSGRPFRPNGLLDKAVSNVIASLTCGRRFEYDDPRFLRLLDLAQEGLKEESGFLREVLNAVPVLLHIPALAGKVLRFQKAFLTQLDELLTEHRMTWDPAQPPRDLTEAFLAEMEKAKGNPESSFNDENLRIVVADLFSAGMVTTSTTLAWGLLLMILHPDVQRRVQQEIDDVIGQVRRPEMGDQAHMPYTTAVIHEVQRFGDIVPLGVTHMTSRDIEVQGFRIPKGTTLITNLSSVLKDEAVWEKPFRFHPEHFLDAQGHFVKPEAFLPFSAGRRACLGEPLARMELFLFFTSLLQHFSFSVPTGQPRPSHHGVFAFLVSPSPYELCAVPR

| SMILES | EC50 [6] | EC50 [7] | EC50 [8] | EC50 [9] | EC50 [10] | other results |
| --- | --- | --- | --- | --- | --- | --- |
| CCN1C(=O)/C(=C2/C=Cc3ccccc3N2C)OC1=S | > 99 µM (inactive) | > 99 µM (inactive) |  |  |  | EC50 [1]: 2.39 µM (active); EC50 [2]: 3.94 µM (inconclusive); EC50 [3]: 39.4 µM (active); EC50 [4]: 4.49 µM (active); EC50 [5]: 55.8 µM (active) |
| CC(C)Oc1cccc(C(=O)C2CCCN(Cc3ccc(Oc4ncccn4)cc3)C2)c1 (stereo not given) |  |  | > 60 µM (not active) | < 0.1 µM (active) | 0.081 µM (active) |  |
| O=C(CCCn1cnc([N+](=O)[O-])n1)Nc1ccc(Cl)c(Cl)c1 |  |  | > 60 µM (not active) | < 0.1 µM (active) | 0.054 µM (active) | AC50 [11]: 15.8 µM (inconclusive); AC50 [12]: 15.8 µM (inconclusive) |
| Cc1nn(-c2ccccc2)c(Cl)c1/C=C1\SC(=S)NC1=O |  |  |  |  |  | IC50 [13]: 46.8 µM (active) |
| CCOc1cccc(CN2CCCC(N3CCc4cc(OC)c(OC)cc4C3)C2)c1O (stereo not given) |  |  | > 60 µM (not active) | < 0.1 µM (active) | 0.084 µM (active) |  |
| CCc1nnc(NS(=O)(=O)c2ccc(NC(=S)NC(=O)c3ccc(OC)cc3)cc2)s1 |  |  |  |  |  | IC50 [13]: 60.5 µM (active) |
| Cc1ccc2cc3c(N)c(C(=O)Nc4c(C)[nH]c(=O)[nH]c4=O)sc3nc2c1 | > 99 µM (inactive) | > 99 µM (inactive) |  |  |  |  |
| Cc1ccc(-c2nn(C)c(=O)c3ccccc23)cc1CNC(=O)c1ccco1 |  |  |  |  |  | IC50 [13]: 21.1 µM (active) |
| O=C(c1ccc([N+](=O)[O-])o1)N1CCc2ccccc2C1 |  |  | > 60 µM (not active) | < 0.1 µM (active) | 0.042 µM (active) | IC50 [14]: 0.45 µM (active) |
| CC(=O)n1c(/C=N/c2ccc(Cl)cc2)c(O)c2ccccc21 | > 99 µM (inactive) | 31.1 µM (inactive) |  |  |  |  |
| O=C(CSCC(=O)Nc1ccccc1)N/N=C/c1c(O)ccc2ccccc12 | > 99 µM (inactive) | > 99 µM (inactive) |  |  |  | EC50 [15]: 9.25 µM (active); EC50 [16]: > 160 µM (inactive); CC50 [17]: 6.22 µM (active); AC50 [18]: 3.34 µM (active); EC50 [19]: > 350 µM (not active); EC50 [20]: > 38 µM (not active) |
| CCOC(=O)C1=C(C)N=c2s/c(=C/c3cccc([N+](=O)[O-])c3O)c(=O)n2C1c1ccccc1 (stereo not given) |  |  |  |  |  | IC50 [21]: 22.1 µM (active); CC50 [22]: 31.1 µM (active); AC50 [23]: > 20 µM (inactive) |
